Measurements from a melting point compilation (Tetko et al.; mined from patent text by program, amines drawn as free bases though some values may be those of a salt).

melting point | Structure (SMILES)
101 to 103 °C | COc1cc(OCc2ccccc2)ccc1C(O)c1cc(Cl)ccc1N (configuration not stated)
191 to 192 °C | O=C(CBr)Nc1ccc(F)cc1C(=O)O
203 to 204 °C | CCOC(=O)c1nc(NC(=N)N=CN(C)C)sc1-c1ccncc1
225 to 227 °C | Cn1c(CNC(=O)Nc2ccc3c(c2)CCC3NC(=O)OC(C)(C)C)c(-c2ccccc2)c2cc(Cl)ccc2c1=O (configuration not stated)
130 to 132 °C | CCC(CC)c1cccc2[nH]c(=O)n(C)c12
104 to 106 °C | O=C1c2ccccc2C(=O)N1CCCN1CCC(C(c2ccccc2)c2ccccc2)CC1
47 to 48 °C | O=C(Cl)N1CC(Sc2ccc(Cl)cc2)C1
148 to 150 °C | Cc1ccc(S(=O)(=O)N2CC(CO)(C(=O)O)C2)cc1
> 300 °C | COc1ccc2nc3[nH]nc(N)c3cc2c1
73 to 74 °C | CC#CCC(C)(C)C(=O)/C=C/[C@@H]1[C@H]2CC(=O)O[C@H]2C[C@H]1OC(=O)c1ccccc1
141 to 145 °C | O=C1NC(=O)C(c2c[nH]c3ccccc23)C1c1cc2c3c(ccn3CCC2)c1 (configuration not stated)
235 to 238 °C | Cc1cnc2c(C(=O)NC=NO)c(Cl)ccc2c1
97 to 99 °C | Cc1ccc(C(Cn2cncn2)=NOCc2c(Cl)cccc2Cl)c(Cl)c1
250 to 252 °C | CC1(C)Oc2ccc(C#N)cc2[C@@H](NC2=C(F)C(=O)CC2)[C@@H]1O (relative stereo)
150 to 152 °C | COc1cc(Cl)nc(Oc2cccc(Oc3nc(OC)cc(OC)n3)c2C(=O)O)n1
83 to 84 °C | O=C(O)C(O)(CSc1ccccc1)C(F)(F)F (configuration not stated)
111 to 112 °C | CC(C)c1cc(CCCOc2ncccc2CC(=O)O)n(Cc2ccc(Cl)cc2Cl)n1
148 to 150 °C | CCNC(=O)NNC=NC(=O)c1nc(Cl)c(NC(C)C)nc1N

melting point | Structure (SMILES)
178 to 181 °C | CC(C)[C@]1(CO)CCC(C)(C)C(=O)O1
142 to 144 °C | CCCCCS(=O)(=O)NC(=O)/C=C/c1ccc(OC(C)C)cc1Oc1ncc(C(F)(F)F)cc1Cl
244 to 246 °C | O=C(O)c1ccc2c(=O)n(Cc3ccc(Cl)cc3Cl)cnc2c1
37 °C | CCCCCCCCCCCC(CC(=O)O)OC(C)=O (racemic)
145 to 148 °C | CCCN1C(=O)COc2cc(F)c(-n3nn[nH]c3=O)cc21
134 to 136 °C | Cc1nc(N2CCN(CC3CCCCC3)C2=O)sc1C(=O)NCc1cccnc1
216 to 220 °C | Oc1ccc(Cn2c(S)nc3ccccc32)cc1
187 to 189 °C | COc1cc(C=C2COCC(=Cc3cc(OC)c(OC)c(OC)c3)C2=O)cc(OC)c1OC
172 °C | N#Cc1cc(N)c(Cl)c(N)c1
168 to 169 °C | CCc1cc(OCc2ccc(-c3ccccc3-c3nnn(C(c4ccccc4)(c4ccccc4)c4ccccc4)n3)cc2)c2nc(OCC=O)ccc2n1
76 to 78 °C | c1cc2c(cc1CCSSCCc1ccc3c(c1)OCO3)OCO2
147 to 148 °C | CCc1nc(C)cn1S(=O)(=O)c1c[nH]cn1
154 to 156 °C | CC(C)c1ccc(C#CC(C)N(O)C(N)=O)cc1 (configuration not stated)
69 to 71 °C | CC(=O)NCC1CN(c2ccc(N3CCN(C(=O)COC(=O)CCCN(C)C)CC3)c(F)c2)C(=O)O1 (configuration not stated)
> 250 °C | c1ccc(N2CNCC23CCN(C2CCc4ccccc42)CC3)cc1 (racemic)
262 to 267 °C | CC(=O)Nc1c(C(C)=O)[nH]c2cc(Cl)ccc12
146 to 147 °C | COC(=O)c1c(Br)c(F)cc2nn(C)cc12
206 to 207 °C | COc1cc2cc(-c3ccc(OCC(O)CNC(C)C)cc3)n(C)c(=O)c2cc1OC (configuration not stated)

Continued, compound first:

Structure (SMILES) | melting point
O=C(COc1ccc(CCNS(=O)(=O)c2ccccc2)cc1)Nc1ccccc1 | 123 °C
CC(C)n1nc(-c2c(OC3CCOCC3)nc(N)nc2-c2ccccc2)ccc1=O | 207 to 209 °C
Cn1c(C(F)(F)F)ccc(-c2cc([N+](=O)[O-])c(Cl)cc2F)c1=O | 139 to 140 °C
CN1CC=C(c2cn(C)c3ccc(NS(C)(=O)=O)cc23)CC1 | 198 to 202 °C
CN1C(=O)C(C(=O)Nc2ccccc2)c2cc3c(cc2S1(=O)=O)CCCC3 (configuration not stated) | 203 to 204 °C
C#CCNC1=Nc2ccc(Cl)cc2C(c2ccccc2)=NC1 | 202 °C
Cc1ccccc1CC(=O)c1cc(O)c(O)c([N+](=O)[O-])c1 | 128 to 129 °C
O=C(CC1c2ccccc2C(=O)N1c1ccc(Cl)cn1)N1CCCCC1 (configuration not stated) | 165 to 166 °C
O=C1CC(O)CN1C(=O)Nc1ccccc1 (configuration not stated) | 104 °C
CS(=O)(=O)Nc1ccc(C=O)cc1Oc1ccc(F)cc1F | 156 to 157 °C
C=C(C)N(C(=C)C)C(=O)C(C)Oc1cc(-c2ccccc2)nc2ccccc12 (configuration not stated) | 110 °C
CCc1cc2c(Nc3nnc(C)s3)ncnc2s1 | 277 to 280 °C
Cc1c(NC(=O)c2ccnc(NCc3ccc(=O)[nH]c3)c2)cccc1C(F)(F)F | 196 to 201 °C
O=c1[nH]c2ccc(CCN3CCN(c4cccc5ccccc45)CC3)cc2o1 | 282 to 285 °C
CNC(=O)N1CCC(C(c2ccc(F)cc2)N(CCc2ccccc2)C(=O)NC)CC1 (configuration not stated) | 186 to 188 °C
COc1cccc(-c2c(NC(=O)Nc3c(C(C)C)cccc3C(C)C)c(=O)n(CCOc3ccccc3)c3ncccc23)c1 | 168 to 170 °C
O=C1NC(=S)SC1=Cc1ccnc2ccccc12 | 325 to 328 °C
O=Cc1cccc(C=Cc2ccc3ccccc3n2)c1 | 78.6 to 80.8 °C

Structure (SMILES) | melting point
CCOC(=O)c1cnn(C)c1O | 134 to 135 °C
COc1ccc2c(C)c(Cl)ccc2c1C(F)(F)F | 102 to 103 °C
Brc1nc2cncnc2n1Cc1ccccc1 | 119 to 121 °C
COc1ccc2c(c1)CCC(CN1CCC3(CC1)C(=O)NCN3c1ccccc1)C2=O (configuration not stated) | 177 to 179 °C
CCOC(=O)C(=CNC1CCCCC1)C(=O)c1ccc(I)cc1Cl | 154 to 156 °C
Oc1ccc2c(c1)C[C@@H](NC[C@H](O)c1ccc(OCc3ccccc3)cc1)CC2 | 132 to 134 °C
FC(F)(F)c1cc(CO[C@H]2CCCN(Cc3cccnn3)[C@H]2c2ccccc2)cc(C(F)(F)F)c1 | 111 to 113 °C
Cn1cc(C2CCC(=O)CC2)c2cc(C#N)ccc21 | 150 to 152 °C
COc1ccc(C(C#N)SC2CCCCC2)cc1OC (configuration not stated) | 80 to 82 °C
FC(F)(F)c1ccc2c(Nc3ccncc3)noc2c1 | 249 to 250 °C
CC(=O)c1cc(C#N)c(OCc2ccccc2)nc1C | 94 to 99 °C
COc1ccccc1-c1nc(-c2ccccc2)c2ncc(Cl)cc2n1 | 116 to 117 °C
CC(=O)OC1CSC(Oc2cccc(-c3ccc(C#N)nc3)c2)C(OC(C)=O)C1OC(C)=O (configuration not stated) | 130 °C
CCOC(C)n1cnc(C(N)=O)n1 (configuration not stated) | 163 to 166 °C
CNC(=O)c1ccccc1-c1cc(-c2ccccc2)no1 | 119 to 121 °C
COC(=O)C(NC(=O)N1C2CCC(C2)N1CC(O)C(Cc1ccccc1)NC(=O)C(NOCc1ccccn1)C(C)C)C(C)C (mixture of isomers) | 79 to 84 °C
N=C(N)c1ccc(C(=O)N[C@@H](Cc2cc(I)c(O)c(I)c2)C(=O)N2CCC(OCC(=O)O)CC2)cc1 | 220 to 221 °C
CC(=O)OCC(=O)C1(OC(C)=O)CCC2C3CCC4=CC(=O)C=CC4(C)C3C(O)CC21C (configuration not stated) | 99.5 °C
